Test results from patent US20230060425A1, “FUSED BICYCLIC HETEROCYCLE DERIVATIVES AS PESTICIDES” (Bayer Aktiengesellschaft, priority 2019, published 2023).

Columns and labels:
Format in all cases: in vivo
Spodoptera frugiperda = Spodoptera frugiperda spray test; settings: foliar, 168 h, application rate 100 g/ha, maize leaf discs, after 7 days, read-out: efficacy
Experimental: Spodoptera frugiperda—Spray Test
(§1) Solvent: • 78.0 parts by weight of acetone • 1.5 parts by weight of dimethylformamide
(§2) Emulsifier: alkylaryl polyglycol ether
To produce further test concentrations, the formulation is diluted with emulsifier-containing water.
After 7 days, the efficacy in % is determined. 100% means that all the caterpillars have been killed; 0% means that no caterpillar has been killed.

Meloidogyne incognita = Meloidogyne incognita test; settings: 336 h, application rate 20 ppm, lettuce, after 14 days, formation of galls, read-out: nematicidal efficacy
Experimental: Meloidouyne incognita Test
Solvent: 125.0 parts by weight of acetone
To produce a suitable active compound formulation, 1 part by weight of active compound is mixed with the stated amount of solvent and the concentrate is diluted to the desired concentration with water.
Vessels are filled with sand, active compound solution, an egg/larvae suspension of the southern root-knot nematode (Meloidogyne incognita) and lettuce seeds. The lettuce seeds germinate and the plants develop. The galls develop on the roots.
After 14 days, the nematicidal efficacy in % is determined by the formation of galls. 100% means that no galls were found; 0% means that the number of galls on the treated plants corresponds to the untreated control.

Myzus persicae [1] = experiment: Myzus persicae oral test; settings: 120 h, application rate 4 ppm, after 5 days, read-out: efficacy
Experimental: Solvent: 100 parts by weight of acetone
To produce a suitable preparation of active compound, 1 part by weight of active compound is dissolved using the specified parts by weight of solvent and made up with water until the desired concentration is attained.
50 μl of the active compound preparation are transferred into microtitre plates and made up to a final volume of 200 μl with 150 μl of IPL41 insect medium (33%+15% sugar). Subsequently, the plates are sealed with parafilm, which a mixed population of green peach aphids (Myzus persicae) within a second microtitre plate is able to puncture and imbibe the solution through it.
(§3) After 5 days, the efficacy in % is determined. 100% means that all the aphids have been killed; 0% means that no aphids have been killed.

Diabrotica balteata = Diabrotica balteata spray test; settings: 168 h, application rate 160 μg/cavity (μg/well), wheat grains, after 7 days, read-out: efficacy
Experimental: Diabrotica balteata—Spray Test
(§4) Solvent: • 78 parts by weight of acetone • 1.5 parts by weight of dimethylformamide
as §2
(§5) To produce a suitable active compound preparation, 1 part by weight of active compound is dissolved using the stated parts by weight of solvent and made up with water containing an emulsifier concentration of 1000 ppm until the desired concentration is attained. To produce further test concentrations, the formulation is diluted with emulsifier-containing water.
Pre-swollen wheat grains (Triticum aestivum) are incubated in a multiwell plate filled with agar and a little water for one day (5 seed grains per well). The germinated wheat grains are sprayed with an active compound preparation of the desired concentration. Subsequently, each cavity is infected with 10-20 beetle larvae of Diabrotica balteata.
After 7 days, the efficacy in % is determined. 100% means that all wheat plants have grown as in the untreated, uninfected control; 0% means that no wheat plant has grown.

Ctenocephalides felis [2] = experiment: Ctenocephalides felis in vitro contact test with adult cat fleas; settings: application rate 5 μg/cm^2 (=500 g/ha); after 48 h; fleas dead or moribund
Experimental: Ctenocephalides felis—In Vitro Contact Tests with Adult Cat Fleas
For the coating of the test tubes, 9 mg of active compound are first dissolved in 1 ml of acetone p.a. and then diluted to the desired concentration with acetone p.a. 250 μl of the solution are distributed homogeneously on the inner walls and the base of a 25 ml glass tube by turning and rocking on an orbital shaker (rocking rotation at 30 rpm for 2 h). With 900 ppm of active compound solution and internal surface area 44.7 cm^2, given homogeneous distribution, an area-based dose of 5 μg/cm^2 is achieved.
After the solvent has evaporated off, the tubes are populated with 5-10 adult cat fleas (Ctenocephalides felis), sealed with a perforated plastic lid and incubated in a horizontal position at room temperature and ambient humidity. After 48 h, efficacy is determined. To this end, the tubes are stood upright and the fleas are knocked to the base of the tube. Fleas which remain motionless at the base or move in an uncoordinated manner are considered to be dead or moribund.
100% efficacy means that all the fleas were dead or moribund. 0% efficacy means that no fleas were harmed.

Ctenocephalides felis [3] = experiment: Ctenocephalides felis oral test; settings: 48 h, application rate 100 ppm, in citrated cattle blood, after 2 days, read-out: efficacy (kill in %)
Experimental: Ctenocephalides felis—Oral Test
Solvent: Dimethyl sulfoxide
To produce a suitable active compound formulation, 10 mg of active compound are mixed with 0.5 ml of dimethyl sulfoxide. Dilution with citrated cattle blood gives the desired concentration.
About 20 unfed adult cat fleas (Ctenocephalides felis) are placed into a chamber which is closed at the top and bottom with gauze. A metal cylinder whose bottom end is closed with parafilm is placed onto the chamber. The cylinder contains the blood/active compound formulation, which can be imbibed by the fleas through the parafilm membrane.
After 2 days, the kill in % is determined. 100% means that all of the fleas have been killed; 0% means that none of the fleas have been killed.

Myzus persicae [4] = experiment: Myzus persicae spray test; settings: foliar, 120 h, application rate 100 g/ha, Chinese cabbage leaf discs, after 5 days, read-out: efficacy
Experimental: Myzus persicae—Spray Test
as §4, §2, §5
Discs of Chinese cabbage leaves (Brassica pekinensis) infested by all stages of the green peach aphid (Myzus persicae) are sprayed with an active compound formulation of the desired concentration.
as §3

Phaedon cochleariae = Phaedon cochleariae spray test; settings: foliar, 168 h, application rate 100 g/ha, Chinese cabbage leaf discs, after 7 days, read-out: efficacy
Experimental: Phaedon cochleariae—Spray Test
as §1, §2, §5
Discs of Chinese cabbage leaves (Brassica pekinensis) are sprayed with an active compound formulation of the desired concentration and, after drying, populated with larvae of the mustard beetle (Phaedon cochleariae).
After 7 days, the efficacy in % is determined. 100% means that all the beetle larvae have been killed; 0% means that no beetle larvae have been killed.

Row | SMILES | pest or weed control at 100 g/ha (Spodoptera frugiperda) [%] | pest or weed control at 20 ppm (Meloidogyne incognita) [%] | pest or weed control at 4 ppm (Myzus persicae [1]) [%] | pest or weed control at 160 µg/well (Diabrotica balteata) [%] | efficacy (Ctenocephalides felis [2]) [%] | pest or weed control at 100 ppm (Ctenocephalides felis [3]) [%] | pest or weed control at 100 g/ha (Myzus persicae [4]) [%] | pest or weed control at 100 g/ha (Phaedon cochleariae) [%]
1 | CCS(=O)(=O)c1c(-c2nc3cc(C(F)(F)F)cnc3n2C)ncc2c(Br)cccc12 [Example I-004] | 100 | 90 | 100 | 100 | – | – | – | –
2 | CCS(=O)(=O)c1c(-c2nc3cc(C(F)(F)C(F)(F)F)cnc3n2C)ncc2cc(Br)ccc12 [Example I-005] | 100 | 90 | 100 | 80 | 100 | 100 | – | –
3 | CCS(=O)(=O)c1c(-c2nc3cc(C(F)(F)C(F)(F)F)cnc3n2C)ncc2c(Br)cccc12 [Example I-006] | 100 | 90 | 90 | 100 | – | – | 100 | –
4 | CCS(=O)(=O)c1c(-c2nc3cc(C(F)(F)F)nnc3n2C)ncc2cc(Cl)ccc12 [Example I-008] | 100 | 100 | 100 | – | – | 100 | – | 100
5 | CCS(=O)(=O)c1c(-c2nc3cc(C(F)(F)C(F)(F)F)ncc3n2C)ncc2c(C(F)(F)F)cccc12 [Example I-012] | 100 | – | 100 | – | 90 | 100 | 90 | 100
6 | CCS(=O)(=O)c1c(-c2nc3cc(C(F)(F)C(F)(F)F)ncc3n2C)ncc2c(C#N)cccc12 [Example I-020] | 100 | 90 | 100 | 100 | – | – | 90 | –
7 | CCS(=O)(=O)c1c(-c2nc3cc(C(F)(F)F)nnc3n2C)ncc2cc(C(F)(F)F)ccc12 [Example I-025] | 100 | – | 100 | 100 | 100 | 100 | 90 | –
8 | CCS(=O)(=O)c1c(-c2nc3cc(C(F)(F)F)cnc3n2C)ncc2c(C#N)cccc12 [Example I-026] | 100 | 90 | 90 | – | – | – | 100 | 100
9 | CCS(=O)(=O)c1c(-c2nc3cc(C(F)(F)F)nnc3n2C)ncc2c(Br)cccc12 [Example I-027] | 100 | 100 | 100 | 100 | – | – | 70 | –
10 | CCS(=O)(=O)c1c(-c2nc3cc(C(F)(F)F)nnc3n2C)ncc2cc(C(F)F)ccc12 [Example I-041] | 100 | 100 | 100 | 100 | – | – | 90 | –
11 | CCS(=O)(=O)c1c(-c2nc3cc(C(F)(F)F)nnc3n2C)ncc2ccc(C(F)F)cc12 [Example I-042] | 83 | 90 | 100 | 100 | – | – | 100 | –
